Source: the PolyMetriX glass transition set
± gives the standard deviation of the reports.

| SMILES | glass transition temperature |
| --- | --- |
| *Oc1ccc(S(=O)(=O)c2ccc(Oc3ccc(C(C)(C)c4ccc(*)cc4)cc3)cc2)cc1 (repeat unit) | 186.00 °C |
| *Oc1ccccc1Oc1ccc(S(=O)(=O)c2ccc(*)cc2)cc1 (repeat unit) | 171.00 °C |
| *O[Si](c1ccccc1)(c1ccccc1)c1cccc(*)c1 (repeat unit) | 62.00 °C |
| *C(=O)c1cc2c(cc1Cl)C(=O)N(c1c(C)cc(C)c(N3C(=O)c4cc(*)c(Cl)cc4C3=O)c1C)C2=O (repeat unit) | 371.00 °C |
| */C=C/c1ccc(/C=C/[Si](C)(C)c2cccc([Si](*)(C)C)c2)cc1 (repeat unit) | 33.00 °C |
| *CC(C#N)C(CCC(C)(O)C=C)C(*)(C)C (repeat unit) | 50.00 °C |
| *O[Si](*)(C)CCCC (repeat unit) | -115.00 °C |
| *c1ccc(Oc2ccc(N3C(=O)c4ccc(Oc5ccc6c(c5)C(=O)N(c5ncc(*)s5)C6=O)cc4C3=O)cc2)cc1 (repeat unit) | 300.00 °C |
| *CC(*)c1c(F)c(F)c(OC)c(F)c1F (repeat unit) | 94.00 °C |
| *c1ccc2c(c1)C(=O)N(c1cc(C)c(N3C(=O)c4ccc(C(*)(C(F)(F)F)C(F)(F)F)cc4C3=O)cc1C)C2=O (repeat unit) | 367.00 ± 17 °C |
| *c1ccc(Oc2ccc(C(C)(C)c3ccc(Oc4ccc(N5C(=O)c6ccc(Oc7ccc(C(C)(C)c8ccc(Oc9ccc%10c(c9)C(=O)N(*)C%10=O)cc8)cc7)cc6C5=O)cc4)cc3)cc2)cc1 (repeat unit) | 176.00 °C |
| *CCSSSS* (repeat unit) | -24.00 °C |
| *c1ccc(Oc2ccc(S(=O)(=O)c3ccc(Oc4ccc(-c5nc(-c6ccccn6)nnc5*)cc4)cc3)cc2)cc1 (repeat unit) | 265.00 °C |
| *c1ccc(Oc2ccc(Oc3ccc(N4C(=O)c5ccc(Oc6ccc7c(c6)C(=O)N(*)C7=O)cc5C4=O)cc3)cc2)cc1 (repeat unit) | 247.50 ± 6.6 °C |
| *c1cc(C)c(/N=C/c2ccc(OCc3ccccc3COc3ccc(/C=N/c4cc(C)c(N5C(=O)c6ccc7c8ccc9c%10c(ccc(c%11ccc(c6c7%11)C5=O)c%108)C(=O)N(*)C9=O)cc4C)cc3OC)c(OC)c2)cc1C (repeat unit) | 143.00 °C |
| *OC(*)C (repeat unit) | -19.50 °C |
| *CC(OCCCC)C(C)(C(=O)OC)C(*)(C)C(=O)OC (repeat unit) | 97.50 °C |
| *CC(OO*)c1ccc(C(C)(C)C)cc1 (repeat unit) | 19.90 °C |
| *c1ccc2c(c1)C(=O)N(c1ccc(-c3ccc(Oc4ccc5c(c4)C(C)(c4ccc(Oc6ccc(-c7ccc(N8C(=O)c9ccc(C(*)(C(F)(F)F)C(F)(F)F)cc9C8=O)cc7)cc6C(F)(F)F)cc4)CC5(C)C)c(C(F)(F)F)c3)cc1)C2=O (repeat unit) | 262.00 °C |
| *c1ccc(Oc2ccc(C(=O)c3ccc(Oc4ccc(C(=O)c5ccc(Oc6ccc(-c7nc(-c8ccc(-c9nc(*)c(-c%10ccccc%10)[nH]9)cc8)[nH]c7-c7ccccc7)cc6)cc5)cc4)cc3)cc2)cc1 (repeat unit) | 245.00 °C |
| *c1ccc(-c2c(-c3ccccc3)nc3ccc(Oc4ccc5nc(-c6ccccc6)c(*)c(-c6ccccc6)c5c4)cc3c2-c2ccccc2)cc1 (repeat unit) | 311.00 °C |

| SMILES | glass transition temperature |
| --- | --- |
| *Oc1ccc(/N=C(\c2ccccc2)c2ccc(Oc3ccc(C(c4ccccc4)(c4ccccc4)c4ccc(Oc5ccc(/C(=N/c6ccc(*)cc6)c6ccccc6)cc5)cc4)cc3)cc2)cc1 (repeat unit) | 177.00 °C |
| *CCCC(C)(C)CNC(=O)CCCC(=O)N* (repeat unit) | 82.00 °C |
| */C=C/C1C/C(=C\C)C(*)C1 (repeat unit) | 121.00 °C |
| *CCCCCCNC(=O)C(CC)CC(CC)C(=O)N* (repeat unit) | 94.00 °C |
| *CC(CS(=O)(=O)C(C)C)O* (repeat unit) | 64.00 °C |
| *c1ccc(Oc2ccc(N3C(=O)N4C(c5ccc(OC)cc5)N(*)C(=O)N4C3c3ccc(OC)cc3)cc2)cc1 (repeat unit) | 163.00 °C |
| *CCC[Si](*)(C)O[Si](C)(C)CCCOc1ccc(C#N)cc1 (repeat unit) | -45.50 °C |
| *CC(*)c1ccc(C(C)(C)C)cc1 (repeat unit) [Poly(p-t-butyl styrene)] | 129 ± 5.6 °C |
| *O[Si](C)(C)O[Si](C)(C)c1c(F)c(F)c(F)c([Si](*)(C)C)c1F (repeat unit) | -61.00 °C |
| *c1ccc(Oc2ccc(S(=O)(=O)c3ccc(C)cc3)cc2)c(N2C(=O)c3ccc(-c4ccc5c(c4)C(=O)N(*)C5=O)cc3C2=O)c1 (repeat unit) | 281.00 °C |
| *CC(*)(C)C(=O)OCCNC(C)(C)C (repeat unit) | 41.00 °C |
| *c1ccc(Oc2ccc(Oc3ccc(Oc4ccc(-c5cnc6ccc(-c7ccc8nc(*)cnc8c7)cc6n5)cc4)cc3)cc2)cc1 (repeat unit) | 216.00 °C |
| *CC(*)CNc1ccc([N+](=O)[O-])cn1 (repeat unit) | 151.00 °C |
| *c1ccc(-c2ccc(N3C(=O)c4ccc(Oc5ccc6c(c5)C(=O)N(*)C6=O)cc4C3=O)cc2C(F)(F)F)c(C(F)(F)F)c1 (repeat unit) | 275.00 °C |
| *C1C2CC(CCCCc3ccccc3)C(C2)C1* (repeat unit) | 148.00 °C |
| *CCCCCCn1ccc(-c2cccc(-c3ccn(*)n3)c2)n1 (repeat unit) | 70.00 °C |
| *c1ccc(C(c2ccc(-c3nc4ccc(-c5ccc6nc(*)[nH]c6c5)cc4[nH]3)cc2)(C(F)(F)F)C(F)(F)F)cc1 (repeat unit) | 269.00 °C |
| *c1ccc(Oc2ccc(S(=O)(=O)c3ccc(Oc4ccc(-c5nc(-c6ccc(-c7nc(*)c(-c8ccccc8)[nH]7)cc6)[nH]c5-c5ccccc5)cc4)cc3)cc2)cc1 (repeat unit) | 301.00 °C |
| *c1ccc(Oc2ccc(N3C(=O)c4ccc(Oc5c(C)cc(-c6cc(C)c(Oc7ccc8c(c7)C(=O)N(*)C8=O)c(C)c6)cc5C)cc4C3=O)cc2)cc1 (repeat unit) | 299.00 °C |
| *Oc1ccc(-c2ccc(OC(=O)OC3C(C)(C)C(OC(*)=O)C3(C)C)cc2)cc1 (repeat unit) | 165.00 °C |

Further lines, results first:

| glass transition temperature | SMILES |
| --- | --- |
| 55.00 °C | *Oc1ccc(CC(NC(=O)CCc2ccc(OC(=O)COCCOCC(*)=O)cc2)C(=O)OCc2ccccc2)cc1 (repeat unit) |
| 180.00 °C | *Nc1cc([N+](=O)[O-])c(NC(=O)CCCCCCC(*)=O)cc1/C=C/c1ccc(N(C)C)cc1 (repeat unit) |
| 76.00 °C | *CCCCCCOc1ccc(/C=C/c2ccc(O*)cc2)cc1 (repeat unit) |
| 294.50 °C | *Oc1ccc(NC(=O)c2cc(NC(=O)c3ccccc3)cc(C(=O)Nc3ccc(*)cc3)c2)cc1 (repeat unit) |
| 307.00 °C | *C(=O)c1ccc2c(c1)C(=O)N(c1ccc(Cc3ccc(C(=O)c4ccc(N5C(=O)c6ccc(*)cc6C5=O)cc4)cc3)cc1)C2=O (repeat unit) |
| 100.00 °C | *C(=O)OCCCCCCCCCOC(=O)c1ccc(NC(=O)c2ccc(N3C(=O)c4ccc(*)cc4C3=O)cc2)cc1 (repeat unit) |
| 182.00 °C | *CC(*)(C)C(=O)NC(=O)Oc1ccc(S(=O)(=O)c2ccc(O)cc2)cc1 (repeat unit) |
| 75.00 °C | *Oc1ccc(CC(NC(=O)CCc2ccc(OC(=O)CCC(*)=O)cc2)C(=O)OC(C)CC)cc1 (repeat unit) |
| 83.00 °C | *CC(O)COc1ccc(C(C)(C)c2ccc(OCC(O)COc3cccc(O*)c3)cc2)cc1 (repeat unit) |
| 250.00 °C | *Nc1ccc(NC(=O)c2ccc(NC(=O)CCCCCCCCCCCCC(=O)Nc3ccc(C(*)=O)cc3)cc2)cc1C(=O)OCCCCCCCCCCCCCCCC (repeat unit) |
| 130.00 °C | *CCCCOc1ccc(-c2ccc(O*)c3ccccc23)c2ccccc12 (repeat unit) |
| 285.00 °C | *C(=O)c1ccc2c(c1)C(=O)N(c1ccccc1Cc1ccccc1N1C(=O)c3ccc(*)cc3C1=O)C2=O (repeat unit) |
| 57.00 °C | *CCOC(=O)C1CCC(C(=O)OCCOc2ccc(C(C)(C)c3ccc(O*)cc3)cc2)CC1 (repeat unit) |
| 55.00 °C | *Oc1cc(OC(=O)c2ccc(OCCCC)cc2)c(OC(=O)C(C)CCC(*)=O)cc1OC(=O)c1ccc(OCCCC)cc1 (repeat unit) |
| 22.00 °C | *Oc1ccc(CC(NC(=O)CCc2ccc(OC(=O)CCCCCCC(*)=O)cc2)C(=O)OCCCCCCCC)cc1 (repeat unit) |
| 222.00 °C | *Oc1ccc(C(C)(C)c2ccc(Oc3ccc(C(=O)c4c(C)ccc5c(C(=O)c6ccc(*)cc6)c(C)ccc45)cc3)cc2)cc1 (repeat unit) |
| 199.92 ± 1.5 °C | *Oc1ccc(C(C)(C)c2ccc(OC(=O)c3ccc(C(*)=O)cc3)cc2)cc1 (repeat unit) [Poly(Bisphenol A terephthalate)] |
| 75.00 °C | *CCCCCCOc1ccc(C(=O)N(C(=O)c2ccc(O*)cc2)c2cc(C)cc(C)c2)cc1 (repeat unit) |
| 150.00 °C | *CCNC(=O)c1ccc([Si](C)(C)c2ccc(C(=O)NCCN(*)c3ccc(/C=C/c4ccc([N+](=O)[O-])cc4)cc3)cc2)cc1 (repeat unit) |
| 122.00 °C | *Oc1ccc(C(=O)c2ccc(C(=O)c3ccc(Oc4cccc(Cc5cccc(*)c5)c4)cc3)cc2)cc1 (repeat unit) |
| 8.50 °C | *CC(*)(C)C(=O)OCCCCCCN(C)c1ccc(N(C)C)cc1 (repeat unit) |
| 287.00 °C | *Nc1ccc(C(C)(C)c2ccc(NC(=O)c3cc(C(*)=O)cc(S(=O)(=O)c4ccccc4)c3)cc2)cc1 (repeat unit) |
| 175.00 °C | *c1cccc(OCCCCOc2cccc(N3C(=O)c4ccc(-c5ccc6c(c5)C(=O)N(*)C6=O)cc4C3=O)c2)c1 (repeat unit) |
| 302.00 °C | *Nc1ccc(Cc2ccc(NC(=O)c3cc(NC(=O)c4ccncc4)cc(C(*)=O)c3)cc2)cc1 (repeat unit) |
